These results are taken from ChEMBL document CHEMBL3352542, “Synthesis, biological evaluation and molecular modeling study of 2-(1,3,4-thiadiazolyl-thio and 4-methyl-thiazolyl-thio)-quinazolin-4-ones as a new class of DHFR inhibitors” (Bioorg Med Chem Lett, 2014).

Test [1] has as its system Staphylococcus aureus. Put plainly: Antimicrobial activity against Staphylococcus aureus assessed as inhibition zone at 200 ug/disk after 24 hrs by disc-diffusion method. Type of test: functional. On the technique in general: Agar diffusion results depend on both activity and mobility in agar.
For test [2], the system named is Bacillus subtilis. Put plainly: Antimicrobial activity against Bacillus subtilis assessed as inhibition zone at 200 ug/disk after 24 hrs by disc-diffusion method. Type of test: functional.
Test [3] concerns Escherichia coli. Put plainly: Antimicrobial activity against Escherichia coli assessed as inhibition zone at 200 ug/disk after 24 hrs by disc-diffusion method. Type of test: functional.
Test [4] deals with Pseudomonas aeruginosa. As to the kind of experiment: Antimicrobial activity against Pseudomonas aeruginosa assessed as inhibition zone at 200 ug/disk after 24 hrs by disc-diffusion method. Type of test: functional.
Test [5] deals with Candida albicans. As to the kind of experiment: Antimicrobial activity against Candida albicans assessed as inhibition zone at 200 ug/disk after 24 hrs by disc-diffusion method. Type of test: functional.
Test [6] relates to Staphylococcus aureus. Put plainly: Antimicrobial activity against Staphylococcus aureus assessed as inhibition of visible growth after 24 hrs by disc-diffusion method. Type of test: functional, organism-based.
Test [7] relates to Bacillus subtilis. As to the kind of experiment: Antimicrobial activity against Bacillus subtilis assessed as inhibition of visible growth after 24 hrs by disc-diffusion method. Type of test: functional, organism-based.
The subject of test [8] is Escherichia coli. Put plainly: Antimicrobial activity against Escherichia coli assessed as inhibition of visible growth after 24 hrs by disc-diffusion method. Type of test: functional, organism-based.
Test [9] concerns Pseudomonas aeruginosa. Put plainly: Antimicrobial activity against Pseudomonas aeruginosa assessed as inhibition of visible growth after 24 hrs by disc-diffusion method. It is filed as functional, organism-based.
The test system of test [10] is Candida albicans. Put plainly: Antimicrobial activity against Candida albicans assessed as inhibition of visible growth after 24 hrs by disc-diffusion method. It is filed as functional, organism-based.

The source made the active and inactive calls. No cut-off for these calls is given here.

As to GENTAMICIN, the inhibition zone (IZ) was 27 mm in the test on Staphylococcus aureus [1]; 25 mm with Bacillus subtilis [2]; 18 mm with Escherichia coli [3]; 21 mm in the test on Pseudomonas aeruginosa [4]; 19 mm in the test on Candida albicans [5]. Also, the outcome in the test with Staphylococcus aureus [6], in the test on Bacillus subtilis [7], in the test with Escherichia coli [8], in the test on Pseudomonas aeruginosa [9] and with Candida albicans [10] was Active.
